Data published in patent US10150751B2 (Merck Sharp & Dohme Corp., priority 2014, dated 2018).

How the values were obtained:
[1] = molecular target: hOX1R (orexin-1 receptor) (Homo sapiens, UniProt O43613); assay: FLIPR Ca2+ flux assay, hOX1R; assay type: cell-based; conditions: CHO cells expressing the orexin-1 receptor (head: hOX1R; method: rat); agonist 70 pM Ala-6,12 orexin-A
human orexin-2 receptor = human orexin-2 receptor (Homo sapiens (Human), UniProt O43614); assay: FLIPR Ca2+ flux assay, hOX2R; assay type: cell-based; conditions: CHO cells expressing the human orexin-2 receptor; agonist 70 pM Ala-6,12 orexin-A
Sequence of human orexin-2 receptor (O43614 whole entry): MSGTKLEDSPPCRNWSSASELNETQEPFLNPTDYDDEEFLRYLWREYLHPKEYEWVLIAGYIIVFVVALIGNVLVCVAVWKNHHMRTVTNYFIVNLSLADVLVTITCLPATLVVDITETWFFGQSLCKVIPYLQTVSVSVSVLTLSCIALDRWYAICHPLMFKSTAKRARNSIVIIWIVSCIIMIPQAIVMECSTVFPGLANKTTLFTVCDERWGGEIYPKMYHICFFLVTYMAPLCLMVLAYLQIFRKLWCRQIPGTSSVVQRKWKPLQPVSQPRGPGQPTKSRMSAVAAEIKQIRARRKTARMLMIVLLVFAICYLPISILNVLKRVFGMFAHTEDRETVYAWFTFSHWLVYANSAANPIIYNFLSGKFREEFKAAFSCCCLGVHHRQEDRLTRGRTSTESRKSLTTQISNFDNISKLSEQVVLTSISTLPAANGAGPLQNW
Description: The utility of the compounds in accordance with the present invention as orexin receptor OX1R and/or OX2R antagonists may be readily determined without undue experimentation by methodology well known in the art, including the “FLIPR Ca^2+ Flux Assay” (Okumura et al., Biochem. Biophys. Res. Comm. 280:976-981, 2001). In a typical experiment the OX1 and OX2 receptor antagonistic activity of the compounds of the present invention was determined in accordance with the following experimental method. For intracellular calcium measurements, Chinese hamster ovary (CHO) cells expressing the rat orexin-1 receptor or the human orexin-2 receptor, are grown in Iscove's modified DMEM containing 2 mM L-glutamine, […], 1% hypoxanthine-thymidine supplement, 100 U/ml penicillin, 100 μg/ml streptomycin and 10% heat-inactivated fetal calf serum (FCS). The cells are seeded at 20,000 cells/well into Becton-Dickinson black 384-well clear bottom sterile plates coated with poly-D-lysine. All reagents were from GIBCO-Invitrogen Corp. The seeded plates are incubated overnight at 37° C. and 5% CO2. Ala-6,12 human orexin-A as the agonist is prepared as a 1 mM stock solution in 1% bovine serum albumin (BSA) and diluted in assay buffer (HBSS containing 20 mM HEPES, 0.1% BSA and 2.5 mM probenecid, pH7.4) for use in the assay at a final concentration of 70pM. Test compounds are prepared as 10 mM stock solution in DMSO, then diluted in 384-well plates, first in DMSO, then assay buffer. On the day of the assay, cells are washed 3 times with 100 μl assay buffer and then incubated for 60 min (37° C., 5% CO2) in 60 μl assay buffer containing 1 μM Fluo-4AM ester, 0.02% pluronic acid, and 1% BSA. The dye loading solution is then aspirated and cells are washed 3 times with 100 μl assay buffer. 30 μl of that same buffer is left in each well. Within the Fluorescent Imaging Plate Reader (FLIPR, Molecular Devices), test compounds are added to the plate in a volume of 25 μl, incubated for 5 min and finally 25 μl of agonist is added. Fluorescence is measured for each well at 1 second intervals for 5 minutes and the height of each fluorescence peak is compared to the height of the fluorescence peak induced by 70 pM Ala-6,12 orexin-A with buffer in place of antagonist. For each antagonist, IC50 value (the concentration of compound needed to inhibit 50% of the agonist response) is determined. Alternatively, compound potency can be assessed by a radioligand binding assay (described in Bergman et. al. Bioorg. Med. Chem. Lett. 2008, 18, 1425-1430) in which the inhibition constant (Ki) is determined in membranes prepared from CHO cells expressing either the OX1 or OX2 receptor. The intrinsic orexin receptor antagonist activity of a compound which may be used in the present invention may be determined by these assays.

IC50 [1] [nM]	IC50 (human orexin-2 receptor) [nM]	Compound	hOX2R FLIPR IC50 (human orexin-2 receptor)
> 10000	167	COc1ccnc(N[C@@H]2C[C@@H](C)N(C(=O)c3ccccc3-n3nccn3)C2)c1C#N [Example 18, 2-(((3R,5R)-1-(2-(2H-1,2,3-triazol-2-yl)benzoyl)-5-methylpyrrolidin-3-yl)amino)-4-methoxynicotinonitrile]	–
2800	39.8	CC(C)Oc1ccnc(N[C@@H]2C[C@@H](C)N(C(=O)c3ccccc3-n3nccn3)C2)c1 [Example 20, (2-(2H-1,2,3-Triazol-2-yl)phenyl)((2R,4R)-4-((4-isopropoxypyridin-2-yl)amino)-2-methylpyrrolidin-1-yl)methanone]	–
3990	31.5	CCOc1ccnc(N[C@@H]2C[C@@H](C)N(C(=O)c3ccccc3-n3nccn3)C2)c1 [Example 21, (2-(2H-1,2,3-triazol-2-yl)phenyl)((2R,4R)-4-((4-ethoxypyridin-2-yl)amino)-2-methylpyrrolidin-1-yl)methanone]	–
2720	23.9	COc1ccnc(N[C@@H]2C[C@@H](C)N(C(=O)c3ccccc3C3(C#N)CC3)C2)c1 [Example 24, 1-(2-((2R,4R)-4-((4-Methoxypyridin-2-yl)amino)-2-methylpyrrolidine-1-carbonyl)phenyl)cyclopropanecarbonitrile]	–
3380	36.1	COc1cccnc1N[C@@H]1C[C@@H](C)N(C(=O)c2ccccc2-n2nccn2)C1 [Example 25, (2-(2H-1,2,3-triazol-2-yl)phenyl)((2R,4R)-4-((3-methoxypyridin-2-yl)amino)-2-methylpyrrolidin-1-yl)methanone]	–
> 10000	31.1	C[C@@H]1C[C@@H](Nc2cc(C#N)ccn2)CN1C(=O)c1ccccc1-c1ncccn1 [Example 30, 2-(((3R,5R)-5-Methyl-1-(2-(pyrimidin-2-yl)benzoyl)pyrrolidin-3-yl)amino)isonicotinonitrile]	–
6750	29.7	COC(=O)c1c(OC)ccnc1N[C@@H]1C[C@@H](C)N(C(=O)c2ccccc2-n2nccn2)C1 [Example 32, Methyl 2-(((3R,5R)-1-(2-(2H-1,2,3-triazol-2-yl)benzoyl)-5-methylpyrrolidin-3-yl)amino)-4-methoxynicotinate]	–
2250	136	C[C@@H]1C[C@@H](N(C)c2cc(Br)ccn2)CN1C(=O)c1ccccc1-n1nccn1 [Example 35, (2-(2H-1,2,3-Triazol-2-yl)phenyl)((2R,4R)-4-((4-bromopyridin-2-yl)(methyl)amino)-2-methylpyrrolidin-1-yl)methanone]	–
> 10000	40.8	COc1c(C#N)ccnc1N[C@@H]1C[C@@H](C)N(C(=O)c2ccccc2-n2nccn2)C1 [Example 39, 2-(((3R,5R)-1-(2-(2H-1,2,3-Triazol-2-yl)benzoyl)-5-methylpyrrolidin-3-yl)amino)-3-methoxyisonicotinonitrile]	–
10000	500	COc1cccnc1N[C@@H]1C[C@@H](C)N(C(=O)c2ccccc2-c2noc(C)n2)C1 [Example 42, ((2R,4R)-4-((3-Methoxypyridin-2-yl)amino)-2-methylpyrrolidin-1-yl)(2-(5-methyl-1,2,4-oxadiazol-3-yl)phenyl)methanone]	–
10000	1500	COc1cccnc1N[C@@H]1C[C@@H](C)N(C(=O)c2nccnc2-n2cccn2)C1 [Example 43, (3-(1H-Pyrazol-1-yl)pyrazin-2-yl)((2R,4R)-4-((3-methoxypyridin-2-yl)amino)-2-methylpyrrolidin-1-yl)methanone]	–
10000	2370	COc1cccnc1N[C@@H]1C[C@@H](C)N(C(=O)c2nccnc2-c2ccccn2)C1 [Example 44, ((2R,4R)-4-((3-Methoxypyridin-2-yl)amino)-2-methylpyrrolidin-1-yl)(3-(pyridin-2-yl)pyrazin-2-yl)methanone]	–

Compound	IC50 [1] [nM]	IC50 (human orexin-2 receptor) [nM]	hOX2R FLIPR IC50 (human orexin-2 receptor)
C[C@@H]1C[C@@H](Nc2cc(C#N)ccn2)CN1C(=O)c1ccccc1-n1nccn1 [Example 19, 2-(((3R,5R)-1-(2-(2H-1,2,3-triazol-2-yl)benzoyl)-5-methylpyrrolidin-3-yl)amino)isonicotinonitrile]	> 10000	22.9	–
C[C@@H]1C[C@@H](N(C)c2cc(C#N)ccn2)CN1C(=O)c1ccccc1-n1nccn1 [Example 23, 2-(((3R,5R)-1-(2-(2H-1,2,3-triazol-2-yl)benzoyl)-5-methylpyrrolidin-3-yl)(methyl)amino)isonicotinonitrile]	> 10000	–	120/5
C[C@@H]1C[C@@H](Nc2cc(C(F)F)ccn2)CN1C(=O)c1ccsc1-n1nccn1 [Example 27, (2-(2H-1,2,3-Triazol-2-yl)thiophen-3-yl)((2R,4R)-4-((4-(difluoromethyl)pyridin-2-yl)amino)-2-methylpyrrolidin-1-yl)methanone]	> 10000	67.8	–
C[C@@H]1C[C@@H](Nc2cc(C(F)F)ccn2)CN1C(=O)c1cscc1-n1nccn1 [Example 28, (4-(2H-1,2,3-triazol-2-yl)thiophen-3-yl)((2R,4R)-4-((4-(difluoromethyl)pyridin-2-yl)amino)-2-methylpyrrolidin-1-yl)methanone]	> 10000	102	–
C[C@@H]1C[C@@H](Nc2cc(C#N)ccn2)CN1C(=O)c1ccccc1-n1ncnn1 [Example 29, 2-(((3R,5R)-1-(2-(2H-tetrazol-2-yl)benzoyl)-5-methylpyrrolidin-3-yl)amino)isonicotinonitrile]	> 10000	302	–
CCOC(=O)c1c(OC)ccnc1N[C@@H]1C[C@@H](C)N(C(=O)c2ccccc2-n2nccn2)C1 [Example 33, Ethyl 2-(((3R,5R)-1-(2-(2H-1,2,3-triazol-2-yl)benzoyl)-5-methylpyrrolidin-3-yl)amino)-4-methoxynicotinate]	4070	31.1	–
CCOc1ccnc(N[C@@H]2C[C@@H](C)N(C(=O)c3ccccc3-n3nccn3)C2)c1C(=O)OC [Example 34, Methyl 2-(((3R,5R)-1-(2-(2H-1,2,3-triazol-2-yl)benzoyl)-5-methylpyrrolidin-3-yl)amino)-4-ethoxynicotinate]	> 10000	66.2	–
Cc1c(C#N)ccnc1N[C@@H]1C[C@@H](C)N(C(=O)c2ccccc2-n2nccn2)C1 [Example 36, 2-(((3R,5R)-1-(2-(2H-1,2,3-Triazol-2-yl)benzoyl)-5-methylpyrrolidin-3-yl)amino)-3-methylisonicotinonitrile]	3350	23.6	–
Cc1c(C#N)ccnc1N(C)[C@@H]1C[C@@H](C)N(C(=O)c2ccccc2-n2nccn2)C1 [Example 37, 2-(((3R,5R)-1-(2-(2H-1,2,3-Triazol-2-yl)benzoyl)-5-methylpyrrolidin-3-yl)(methyl)amino)-3-methylisonicotinonitrile]	> 10000	3210	–
COC(=O)c1c(C#N)ccnc1N[C@@H]1C[C@@H](C)N(C(=O)c2ccccc2-n2nccn2)C1 [Example 38, Methyl 2-(((3R,5R)-1-(2-(2H-1,2,3-triazol-2-yl)benzoyl)-5-methylpyrrolidin-3-yl)amino)-4-cyanonicotinate]	1550	14.6	–
